Consider seven compounds from patent US9783527B2, “Indazole ureas and method of use” (AbbVie Inc., priority 2014, dated 2017).

The IC50 is the concentration needed to halve the response being measured.

Assay [1] concerns MIA-induced osteoarthritic pain in rats. Briefly: Osteoarthritic (OA) pain induced by sodium monoiodoacetate (MIA), hind limb grip force. The note with it: male Sprague Dawley rats, grip force 20 days after MIA injection. It counts as in vivo, rat. The method, then: Osteoarthritic (OA) Pain Induced by Sodium Monoiodoacetate (MIA)
Pain behavior was assessed by measurement of hind limb grip force (GF) in adult osteoarthritic rats. Male Sprague Dawley rats, obtained from Charles River Laboratories, (Wilmington, Mass.), weighing 150-175 g, were injected in the unilateral knee join with a single intra-articular injection of sodium monoiodoacetate (MIA, 3 mg/rat). All rats were tested at 20 days following MIA injection. A behavioral measure of activity-induced pain was carried out. Measurements of the peak hind limb grip force were conducted by recording the maximum compressive force (CFmax), in grams of force, exerted on a hind limb strain gauge setup, in a commercially available grip force measurement system (Columbus Instruments, Columbus, Ohio).
During testing, each rat was gently restrained by grasping it around its rib cage and then allowed to grasp the wire mesh frame attached to the strain gauge. The experimenter then moved the animal in a rostral-to-caudal direction until the grip was broken. Each rat was sequentially tested twice at an approximately 2-3 minute interval to obtain a raw mean grip force (CFmax). This raw mean grip force data was in turn converted to a maximum hindlimb cumulative compressive force (CFmax), as the grams of force/kg of body weight, for each animal.
For evaluating the compound effects, the hind limb grip force was conducted 20 days following the intra-articular injection of MIA. A group of age-matched nave (not injected with MIA) animals was added as a comparator to the drug-dosed groups. The vehicle control response for each group of MIA-treated animals was defined as the 0% response (0% effect), whereas the nave control group was defined as the normal response and as 100% effect. The % effect for each dose group was expressed as % return of response to normalcy, compared to the nave group. A percent maximal possible effect (% MPE) of testing compound was calculated according to the formula: (Treatment CFmax−Vehicle CFmax)/Vehicle CFmax]×100). Higher % effect numbers indicate increased relief from the pain in the model, with 100% indicating a return to the level of response seen in normal (non-osteoarthritic) animals. All experiments evaluating drug effects in this model were conducted in a randomized blinded fashion.
The animals were housed in Association for Assessment and Accreditation of Laboratory Animal Care (AAALAC) approved facilities at AbbVie Inc. in a temperature-regulated environment under a controlled 12-hour light-dark cycle, with lights on at 6:00 a.m. Food and water were available ad libitum at all times except during testing. All testing was done following procedures outlined in protocols approved by AbbVie Inc.'s Institutional Animal Care and Use Committee.

Assay [2] has as its system spinal nerve ligation-induced neuropathic pain in rats. Briefly: Rat spinal nerve ligation (SNL) model of neuropathic pain, von Frey paw withdrawal threshold. It counts as in vivo. The note with it: SNL dose 100 mg/kg; male Sprague Dawley rats, mechanical sensitivity (von Frey). An excerpt:
Rat Spinal Nerve Ligation (SNL) Model of Neuropathic Pain.
A model of spinal nerve ligation-induced (SNL model) neuropathic pain as originally described by Kim and Chung (Kim, S. H. and J. M. Chung, 1992, Pain 50, 355) was used to test a compound of the present application. The male Sprague Dawley rats (Charles River Laboratories, Wilmington, Mass.), weighing 150-175 g at the time of surgery, were placed under isoflurane anesthesia and a 1.5 cm incision was made dorsal to the lumbosacral plexus. The paraspinal muscles (left side) were separated from the spinous processes, the left L5 and L6 spinal nerves isolated, and tightly ligated with 5-0 silk suture distal to the dorsal root ganglion. Care was taken to avoid ligating the L4 spinal nerve. Following spinal nerve ligation, a minimum of 7 days of recovery and no more than 3 weeks was allowed prior to the behavioral testing (mechanical sensitivity). Only rats with threshold scores ≦4.5 g were considered allodynic and utilized in pharmacological experiments.
Mechanical sensitivity was measured using calibrated von Frey filaments (Stoelting, Wood Dale, Ill.). Paw withdrawal threshold (PWT) was determined by using the Dixon's up-down method (Dixon, W. J., 1980, Ann. Rev. Pharmacol. Toxicol., 20, 441). Rats were placed into inverted individual plastic containers (20×12.5×20 cm) on top of a suspended wire mesh with a 1 cm^2 grid to provide access to the ventral side of the hind paws, and acclimated to the test chambers for 20 minutes. The von Frey filaments were presented perpendicularly to the plantar surface of the selected hind paw, and then held in this position for approximately 8 seconds with enough force to cause a slight bend in the filament. Positive responses included an abrupt withdrawal of the hind paw from the stimulus, or flinching behavior immediately following removal of the stimulus. A 50% withdrawal threshold was determined using an up-down procedure (Dixon, 1980). A percent maximal possible effect (% MPE) of testing compound was calculated according to the formula: (Log [compound-treated threshold]−Log [vehicle-treated threshold])/(Log [maximum threshold]−Log [vehicle-treated threshold])×100%, where the maximum threshold was equal to 15 g.
The animals were housed in Association for Assessment and Accreditation of Laboratory Animal Care (AAALAC) approved facilities at AbbVie Inc. in a temperature-regulated environment under a controlled 12-hour light-dark cycle, with lights on at 6:00 a.m. Food and water were available ad libitum at all times except during testing. All testing was done following procedures outlined in protocols approved by AbbVie Inc.s' Institutional Animal Care and Use Committee.

The target of assay [3] is human Nav1.8 (Homo sapiens (Human), UniProt Q9Y5Y9). As to the kind of experiment: FRET-based membrane potential assay, recombinant human sodium channel Nav1.8. It counts as cell-based. The note with it: HEK293 cells stably expressing recombinant human Nav1.8; depolarization with veratridine (EC80) + scorpion venom. An outline of the steps: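 HEK293 cells stably expressing Nav1.8 were loaded with CC2-DMPE/DiSBAC2(3) FRET voltage dyes. Compounds were added 3 min before depolarization with EC80 veratridine plus scorpion venom. The F440-480/F565-625 ratio was read on FLIPR; IC50 came from four-parameter Hill fits.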

The target of assay [4] is human Nav1.7 (Homo sapiens (Human), UniProt Q15858). As to the kind of experiment: FRET-based membrane potential assay, recombinant human sodium channel Nav1.7. It counts as cell-based. Conditions: HEK293 cells stably expressing recombinant human Nav1.7; depolarization with veratridine (EC80) + scorpion venom. An outline of the steps:
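IC50 derived by four-parameter Hill fit of percent inhibition of depolarization, measured as peak F440-480/F565-625 ratio over baseline. Stable human Nav1.7 HEK293 cells, dye-loaded with CC2-DMPE and DiSBAC2(3)/VABSC-1 at room temperature, received compound 3 min ahead of veratridine (EC80) plus scorpion venom.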

human Nav1.7, sequence (Q15858 whole entry): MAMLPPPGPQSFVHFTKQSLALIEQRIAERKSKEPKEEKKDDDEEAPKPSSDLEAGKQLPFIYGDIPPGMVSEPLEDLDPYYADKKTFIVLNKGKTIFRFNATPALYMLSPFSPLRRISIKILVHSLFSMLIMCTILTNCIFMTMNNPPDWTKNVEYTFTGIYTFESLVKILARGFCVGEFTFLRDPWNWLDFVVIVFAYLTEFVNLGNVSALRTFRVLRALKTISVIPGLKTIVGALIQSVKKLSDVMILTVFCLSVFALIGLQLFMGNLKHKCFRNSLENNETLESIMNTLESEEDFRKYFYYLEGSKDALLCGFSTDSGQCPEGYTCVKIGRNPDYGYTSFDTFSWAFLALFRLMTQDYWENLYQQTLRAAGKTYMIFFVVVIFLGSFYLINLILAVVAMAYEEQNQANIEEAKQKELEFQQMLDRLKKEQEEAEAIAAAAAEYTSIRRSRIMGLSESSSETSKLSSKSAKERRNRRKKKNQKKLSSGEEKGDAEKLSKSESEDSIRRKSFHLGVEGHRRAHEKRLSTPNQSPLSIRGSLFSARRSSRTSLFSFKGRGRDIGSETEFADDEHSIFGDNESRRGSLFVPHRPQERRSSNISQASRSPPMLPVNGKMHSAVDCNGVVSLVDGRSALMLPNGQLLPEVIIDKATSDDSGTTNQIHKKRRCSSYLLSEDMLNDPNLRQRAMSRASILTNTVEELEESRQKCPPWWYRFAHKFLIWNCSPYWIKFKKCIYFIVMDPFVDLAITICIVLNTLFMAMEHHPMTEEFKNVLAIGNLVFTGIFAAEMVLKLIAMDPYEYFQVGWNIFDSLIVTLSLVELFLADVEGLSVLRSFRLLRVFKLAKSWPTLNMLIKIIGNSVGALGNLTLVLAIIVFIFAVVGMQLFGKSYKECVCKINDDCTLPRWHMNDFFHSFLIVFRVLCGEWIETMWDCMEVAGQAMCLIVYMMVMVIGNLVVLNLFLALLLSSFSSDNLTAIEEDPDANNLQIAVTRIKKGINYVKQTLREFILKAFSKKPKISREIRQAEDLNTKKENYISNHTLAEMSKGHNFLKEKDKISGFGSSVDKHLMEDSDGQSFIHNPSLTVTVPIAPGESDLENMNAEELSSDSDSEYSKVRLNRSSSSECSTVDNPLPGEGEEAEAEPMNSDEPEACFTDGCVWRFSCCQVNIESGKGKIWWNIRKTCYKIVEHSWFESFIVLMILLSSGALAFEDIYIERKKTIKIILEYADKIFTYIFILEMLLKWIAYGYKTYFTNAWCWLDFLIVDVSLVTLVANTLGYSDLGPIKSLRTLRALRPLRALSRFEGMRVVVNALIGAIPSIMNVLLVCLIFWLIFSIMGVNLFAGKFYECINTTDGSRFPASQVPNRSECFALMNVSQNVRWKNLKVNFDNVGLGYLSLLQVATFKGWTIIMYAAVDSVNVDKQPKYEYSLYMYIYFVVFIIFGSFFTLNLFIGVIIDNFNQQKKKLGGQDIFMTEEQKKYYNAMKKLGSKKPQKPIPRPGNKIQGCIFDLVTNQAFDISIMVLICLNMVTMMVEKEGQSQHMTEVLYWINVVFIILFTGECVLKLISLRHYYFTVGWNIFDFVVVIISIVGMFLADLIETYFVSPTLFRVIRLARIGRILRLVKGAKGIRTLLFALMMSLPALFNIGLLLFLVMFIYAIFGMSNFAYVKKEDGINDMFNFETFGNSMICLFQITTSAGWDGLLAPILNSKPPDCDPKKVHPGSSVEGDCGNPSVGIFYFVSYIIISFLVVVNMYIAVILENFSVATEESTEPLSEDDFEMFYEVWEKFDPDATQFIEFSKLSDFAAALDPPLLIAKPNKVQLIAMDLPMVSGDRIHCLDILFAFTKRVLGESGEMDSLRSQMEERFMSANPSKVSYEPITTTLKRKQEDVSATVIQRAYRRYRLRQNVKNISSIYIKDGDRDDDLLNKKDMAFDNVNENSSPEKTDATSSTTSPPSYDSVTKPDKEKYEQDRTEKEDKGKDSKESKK
human Nav1.8, sequence (Q9Y5Y9 whole entry): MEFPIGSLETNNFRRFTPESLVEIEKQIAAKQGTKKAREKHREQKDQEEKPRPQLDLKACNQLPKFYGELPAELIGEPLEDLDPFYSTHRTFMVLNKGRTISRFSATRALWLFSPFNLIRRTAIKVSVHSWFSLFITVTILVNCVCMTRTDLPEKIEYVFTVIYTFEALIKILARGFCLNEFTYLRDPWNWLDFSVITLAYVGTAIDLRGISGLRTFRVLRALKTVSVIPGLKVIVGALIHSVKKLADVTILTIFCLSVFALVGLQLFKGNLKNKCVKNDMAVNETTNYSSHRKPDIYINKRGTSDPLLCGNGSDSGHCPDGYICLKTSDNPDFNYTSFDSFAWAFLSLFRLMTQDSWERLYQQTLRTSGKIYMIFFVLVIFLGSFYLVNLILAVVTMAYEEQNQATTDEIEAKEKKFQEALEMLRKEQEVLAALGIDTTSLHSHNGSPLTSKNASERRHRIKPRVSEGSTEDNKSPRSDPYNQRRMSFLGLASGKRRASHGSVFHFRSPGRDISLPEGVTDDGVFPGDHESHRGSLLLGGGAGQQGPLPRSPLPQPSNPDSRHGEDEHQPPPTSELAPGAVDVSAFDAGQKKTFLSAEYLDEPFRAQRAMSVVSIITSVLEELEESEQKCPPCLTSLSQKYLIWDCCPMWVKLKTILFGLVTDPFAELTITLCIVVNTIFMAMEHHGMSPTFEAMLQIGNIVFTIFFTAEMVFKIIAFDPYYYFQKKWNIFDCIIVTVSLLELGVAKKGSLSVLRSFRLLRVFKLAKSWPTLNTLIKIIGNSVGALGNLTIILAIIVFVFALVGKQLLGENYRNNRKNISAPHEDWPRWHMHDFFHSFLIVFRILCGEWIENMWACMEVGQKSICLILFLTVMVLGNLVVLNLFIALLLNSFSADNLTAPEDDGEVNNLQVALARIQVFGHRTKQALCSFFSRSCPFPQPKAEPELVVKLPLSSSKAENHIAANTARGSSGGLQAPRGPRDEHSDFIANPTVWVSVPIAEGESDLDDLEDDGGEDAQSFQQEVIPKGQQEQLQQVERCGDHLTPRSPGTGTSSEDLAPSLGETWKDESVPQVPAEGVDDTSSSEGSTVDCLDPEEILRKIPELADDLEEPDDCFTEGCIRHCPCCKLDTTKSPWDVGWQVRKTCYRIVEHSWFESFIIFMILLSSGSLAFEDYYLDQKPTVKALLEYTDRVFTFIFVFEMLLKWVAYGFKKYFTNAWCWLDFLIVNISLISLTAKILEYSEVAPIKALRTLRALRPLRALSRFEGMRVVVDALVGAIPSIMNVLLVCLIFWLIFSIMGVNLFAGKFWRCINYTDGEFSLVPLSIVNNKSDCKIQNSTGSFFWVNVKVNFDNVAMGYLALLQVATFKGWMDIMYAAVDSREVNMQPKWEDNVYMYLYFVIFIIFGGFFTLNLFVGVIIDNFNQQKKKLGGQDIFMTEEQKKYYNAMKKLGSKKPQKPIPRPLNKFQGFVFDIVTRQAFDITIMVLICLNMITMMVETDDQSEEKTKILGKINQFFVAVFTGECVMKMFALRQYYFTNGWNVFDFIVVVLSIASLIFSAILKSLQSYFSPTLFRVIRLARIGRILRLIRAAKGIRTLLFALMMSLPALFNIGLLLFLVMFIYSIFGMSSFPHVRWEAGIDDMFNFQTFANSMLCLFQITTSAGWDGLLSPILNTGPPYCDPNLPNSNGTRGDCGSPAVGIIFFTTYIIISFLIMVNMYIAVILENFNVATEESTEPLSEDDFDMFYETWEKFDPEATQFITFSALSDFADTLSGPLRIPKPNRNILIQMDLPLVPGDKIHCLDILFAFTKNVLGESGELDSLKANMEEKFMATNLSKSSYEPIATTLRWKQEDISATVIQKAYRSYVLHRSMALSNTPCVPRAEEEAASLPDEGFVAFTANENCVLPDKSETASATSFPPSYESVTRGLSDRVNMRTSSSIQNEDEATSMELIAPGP

For `O=C(CN1CCN(c2cccc3c2cnn3-c2ccccc2F)C1=O)N1CCCC1` [Example 1, 1-[1-(2-fluorophenyl)-1H-indazol-4-yl]-3-[2-oxo-2-(pyrrolidin-1-yl)ethyl]imidazolidin-2-one], the “OA MPE (%)” value in assay [1] (OA dose 30 mg/kg) is given as 55%. Moreover, the “SNL MPE (%)” value in assay [2] was 52%.
The matching figures for `CC(C)CC(=O)CN1CCN(c2cccc3c2cnn3-c2ccccc2F)C1=O` [Example 8, 1-[1-(2-fluorophenyl)-1H-indazol-4-yl]-3-(4-methyl-2-oxopentyl)imidazolidin-2-one]: 75% and 57%.
The matching figures for `O=C(CN1CCN(c2cccc3c2cnn3-c2ccccc2F)C1=O)N1CC[C@H](F)C1` [Example 10, 1-[1-(2-fluorophenyl)-1H-indazol-4-yl]-3-{2-[(3S)-3-fluoropyrrolidin-1-yl]-2-oxoethyl}imidazolidin-2-one]: 91% and 0%.
`O=C1N(Cc2ccccn2)CCN1c1cccc2c1cnn2-c1ccccc1F` [Example 12, 1-[1-(2-fluorophenyl)-1H-indazol-4-yl]-3-(pyridin-2-ylmethyl)imidazolidin-2-one]: the IC50 is 321 nM in assay [3] and 1020 nM in assay [4]. Also, the “SNL MPE (%)” value in assay [2] is 25%.
On the same counts, the results for `O=C1N(Cc2cocn2)CCN1c1cccc2c1cnn2-c1ccccc1F` [Example 26, 1-[1-(2-fluorophenyl)-1H-indazol-4-yl]-3-(1,3-oxazol-4-ylmethyl)imidazolidin-2-one] are 517 nM, 382 nM and 54%.
For `O=C1N(Cc2ncco2)CCN1c1cccc2c1cnn2-c1ccccc1F` [Example 31, 1-[1-(2-fluorophenyl)-1H-indazol-4-yl]-3-(1,3-oxazol-2-ylmethyl)imidazolidin-2-one], the “OA MPE (%)” value in assay [1] (OA dose 10 mg/kg) was 89%. In assay [2], the “SNL MPE (%)” value was found to be 94%.
As for `O=C(CN1CCN(c2cccc3c2cnn3-c2ccccc2F)C1=O)N1CCC[C@@H](F)C1` [Example 53, 1-[1-(2-fluorophenyl)-1H-indazol-4-yl]-3-{2-[(3R)-3-fluoropiperidin-1-yl]-2-oxoethyl}imidazolidin-2-one], the “OA MPE (%)” value in assay [1] (OA dose 30 mg/kg) worked out at 74%. In addition, the “SNL MPE (%)” value in assay [2] amounted to 47%.
